Data taken from the supplement of paper PMC10307832.

Experiments:
Test in all cases: relative viability (nuclei count vs DMSO), 5 days (fraction); higher = more cells survive
A-427 = test system: A-427
How it was run: (§1)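 Nuclei were stained with Hoechst during a one-step fixation (final 0.05% Triton X-100, 1% formaldehyde, 1 ug/ml Hoechst) carried out 5 days after dosing, then counted on 4× images. The cells, lung cancer lines in 1536-well plates, had been dosed by pin tool the day after seeding with one drug alone or a fixed anchor-drug dose plus five library-drug doses (not always all listed) in √10 steps. Relative viability is the nuclei count in treated wells divided by that in vehicle wells, and each value is the median of duplicate plates.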

CAL-12T = test system: CAL-12T
How it was run: as §1

COR-L 105 = test system: COR-L 105
How it was run: as §1

EMC-BAC-2 = test system: EMC-BAC-2
How it was run: as §1

HARA = test system: HARA
How it was run: as §1

HCC-366 = test system: HCC-366
How it was run: as §1

HCC-827 = test system: HCC-827
How it was run: as §1

HOP-62 = test system: HOP-62
How it was run: as §1

LCLC-103H = test system: LCLC-103H
How it was run: as §1

NCI-H1355 = test system: NCI-H1355
How it was run: as §1

NCI-H1395 = test system: NCI-H1395
How it was run: as §1

NCI-H1437 = test system: NCI-H1437
How it was run: as §1

NCI-H1755 = test system: NCI-H1755
How it was run: as §1

NCI-H1792 = test system: NCI-H1792
How it was run: as §1

NCI-H1915 = test system: NCI-H1915
How it was run: as §1

NCI-H1975 = test system: NCI-H1975
How it was run: as §1

NCI-H2009 = test system: NCI-H2009
How it was run: as §1

NCI-H2228 = test system: NCI-H2228
How it was run: as §1

NCI-H23 = test system: NCI-H23
How it was run: as §1

NCI-H460 = test system: NCI-H460
How it was run: as §1

NCI-H727 = test system: NCI-H727
How it was run: as §1

SK-LU-1 = test system: SK-LU-1
How it was run: as §1

SW 1573 = test system: SW 1573
How it was run: as §1

With `CC1(C)CCC(c2ccc(Cl)cc2)=C(CN2CCN(c3ccc(C(=O)NS(=O)(=O)c4ccc(N[C@H](CCN5CCOCC5)CSc5ccccc5)c(S(=O)(=O)C(F)(F)F)c4)cc3)CC2)C1` [Navitoclax] + O=C(c1cc(Cc2n[nH]c(=O)c3ccccc23)ccc1F)N1CCN(C(=O)C2CC2)CC1 [Olaparib] (partner 8 µM) the relative viability (A-427; first compound 0.005 µM) was 0.71, the relative viability (A-427; first compound 0.01581 µM) was 0.682 and the relative viability (A-427; first compound 0.05 µM) was 0.782. It also gave a relative viability (A-427; first compound 0.1581 µM) of 0.808, a relative viability (A-427; first compound 0.5 µM) of 0.737 and a relative viability (CAL-12T; first compound 0.005 µM) of 0.715. The relative viability (CAL-12T; first compound 0.01581 µM) was 0.651, the relative viability (CAL-12T; first compound 0.05 µM) was 0.674 and the relative viability (CAL-12T; first compound 0.1581 µM) was 0.75. The relative viability (CAL-12T; first compound 0.5 µM) was 0.791, the relative viability (COR-L 105; first compound 0.005 µM) was 0.707 and the relative viability (COR-L 105; first compound 0.01581 µM) was 0.749. It also gave a relative viability (COR-L 105; first compound 0.05 µM) of 0.664, a relative viability (COR-L 105; first compound 0.1581 µM) of 0.614 and a relative viability (COR-L 105; first compound 0.5 µM) of 0.666. It also gave a relative viability (EMC-BAC-2; first compound 0.005 µM) of 0.461, a relative viability (EMC-BAC-2; first compound 0.01581 µM) of 0.483 and a relative viability (EMC-BAC-2; first compound 0.05 µM) of 0.456. It also gave a relative viability (EMC-BAC-2; first compound 0.1581 µM) of 0.434, a relative viability (EMC-BAC-2; first compound 0.5 µM) of 0.452 and a relative viability (HARA; first compound 0.005 µM) of 0.763. It also gave a relative viability (HARA; first compound 0.01581 µM) of 0.752, a relative viability (HARA; first compound 0.05 µM) of 0.579 and a relative viability (HARA; first compound 0.1581 µM) of 0.789. For the same compound, the relative viability (HARA; first compound 0.5 µM) was 0.875, the relative viability (HCC-366; first compound 0.005 µM) was 0.362 and the relative viability (HCC-366; first compound 0.01581 µM) was 0.43. It also gave a relative viability (HCC-366; first compound 0.1581 µM) of 0.404, a relative viability (HCC-366; first compound 0.5 µM) of 0.399 and a relative viability (HCC-827; first compound 0.005 µM) of 0.714. The relative viability (HCC-827; first compound 0.01581 µM) was 0.669, the relative viability (HCC-827; first compound 0.05 µM) was 0.531 and the relative viability (HCC-827; first compound 0.1581 µM) was 0.638. For the same compound, the relative viability (HCC-827; first compound 0.5 µM) was 0.632, the relative viability (HOP-62; first compound 0.005 µM) was 0.211 and the relative viability (HOP-62; first compound 0.01581 µM) was 0.434. It also gave a relative viability (HOP-62; first compound 0.05 µM) of 0.507, a relative viability (HOP-62; first compound 0.1581 µM) of 0.473 and a relative viability (HOP-62; first compound 0.5 µM) of 0.432. The relative viability (LCLC-103H; first compound 0.005 µM) was 0.715, the relative viability (LCLC-103H; first compound 0.01581 µM) was 0.817 and the relative viability (LCLC-103H; first compound 0.05 µM) was 0.729. The relative viability (LCLC-103H; first compound 0.1581 µM) was 0.738, the relative viability (LCLC-103H; first compound 0.5 µM) was 0.705 and the relative viability (NCI-H1355; first compound 0.005 µM) was 0.74. The relative viability (NCI-H1355; first compound 0.01581 µM) was 0.731, the relative viability (NCI-H1355; first compound 0.05 µM) was 0.734 and the relative viability (NCI-H1355; first compound 0.1581 µM) was 0.694. It also gave a relative viability (NCI-H1355; first compound 0.5 µM) of 0.806, a relative viability (NCI-H1395; first compound 0.005 µM) of 0.456 and a relative viability (NCI-H1395; first compound 0.01581 µM) of 0.495. It also gave a relative viability (NCI-H1395; first compound 0.05 µM) of 0.441, a relative viability (NCI-H1395; first compound 0.1581 µM) of 0.428 and a relative viability (NCI-H1395; first compound 0.5 µM) of 0.473. It also gave a relative viability (NCI-H1437; first compound 0.005 µM) of 0.619, a relative viability (NCI-H1437; first compound 0.01581 µM) of 0.659 and a relative viability (NCI-H1437; first compound 0.05 µM) of 0.655. For the same compound, the relative viability (NCI-H1437; first compound 0.1581 µM) was 0.629, the relative viability (NCI-H1437; first compound 0.5 µM) was 0.656 and the relative viability (NCI-H1755; first compound 0.005 µM) was 0.831. The relative viability (NCI-H1755; first compound 0.01581 µM) was 0.929, the relative viability (NCI-H1755; first compound 0.05 µM) was 0.686 and the relative viability (NCI-H1755; first compound 0.1581 µM) was 0.818. It also gave a relative viability (NCI-H1755; first compound 0.5 µM) of 0.897, a relative viability (NCI-H1792; first compound 0.005 µM) of 0.408 and a relative viability (NCI-H1792; first compound 0.01581 µM) of 0.662. The relative viability (NCI-H1792; first compound 0.1581 µM) was 0.386, the relative viability (NCI-H1792; first compound 0.5 µM) was 0.326 and the relative viability (NCI-H1915; first compound 0.005 µM) was 0.253. The relative viability (NCI-H1915; first compound 0.01581 µM) was 0.247, the relative viability (NCI-H1915; first compound 0.05 µM) was 0.215 and the relative viability (NCI-H1915; first compound 0.1581 µM) was 0.261. For the same compound, the relative viability (NCI-H1915; first compound 0.5 µM) was 0.254, the relative viability (NCI-H1975; first compound 0.005 µM) was 0.77 and the relative viability (NCI-H1975; first compound 0.01581 µM) was 0.854. The relative viability (NCI-H1975; first compound 0.05 µM) was 0.773, the relative viability (NCI-H1975; first compound 0.1581 µM) was 0.813 and the relative viability (NCI-H1975; first compound 0.5 µM) was 0.755. It also gave a relative viability (NCI-H2009; first compound 0.005 µM) of 0.698, a relative viability (NCI-H2009; first compound 0.01581 µM) of 0.692 and a relative viability (NCI-H2009; first compound 0.05 µM) of 0.691. For the same compound, the relative viability (NCI-H2009; first compound 0.1581 µM) was 0.6, the relative viability (NCI-H2009; first compound 0.5 µM) was 0.689 and the relative viability (NCI-H2228; first compound 0.005 µM) was 0.941. The relative viability (NCI-H2228; first compound 0.01581 µM) was 0.754, the relative viability (NCI-H2228; first compound 0.1581 µM) was 0.758 and the relative viability (NCI-H2228; first compound 0.5 µM) was 0.638. The relative viability (NCI-H23; first compound 0.005 µM) was 0.328, the relative viability (NCI-H23; first compound 0.01581 µM) was 0.301 and the relative viability (NCI-H23; first compound 0.05 µM) was 0.272. For the same compound, the relative viability (NCI-H23; first compound 0.1581 µM) was 0.291, the relative viability (NCI-H23; first compound 0.5 µM) was 0.343 and the relative viability (NCI-H460; first compound 0.005 µM) was 0.424. It also gave a relative viability (NCI-H460; first compound 0.01581 µM) of 0.499, a relative viability (NCI-H460; first compound 0.05 µM) of 0.359 and a relative viability (NCI-H460; first compound 0.1581 µM) of 0.388. For the same compound, the relative viability (NCI-H460; first compound 0.5 µM) was 0.402, the relative viability (NCI-H727; first compound 0.005 µM) was 0.774 and the relative viability (NCI-H727; first compound 0.01581 µM) was 0.769. It also gave a relative viability (NCI-H727; first compound 0.05 µM) of 0.738, a relative viability (NCI-H727; first compound 0.1581 µM) of 0.559 and a relative viability (NCI-H727; first compound 0.5 µM) of 0.721. The relative viability (SK-LU-1; first compound 0.005 µM) was 0.613, the relative viability (SK-LU-1; first compound 0.01581 µM) was 0.474 and the relative viability (SK-LU-1; first compound 0.05 µM) was 0.329. For the same compound, the relative viability (SK-LU-1; first compound 0.1581 µM) was 0.424, the relative viability (SK-LU-1; first compound 0.5 µM) was 0.338 and the relative viability (SW 1573; first compound 0.005 µM) was 0.486. The relative viability (SW 1573; first compound 0.01581 µM) was 0.528, the relative viability (SW 1573; first compound 0.05 µM) was 0.471 and the relative viability (SW 1573; first compound 0.1581 µM) was 0.431. It also gave a relative viability (SW 1573; first compound 0.5 µM) of 0.367.
